Experimental data as given in US4377687A, “Analogs of 1-(2-chloroethyl)-1-nitroso-3-(cycloheyl)-urea substituted by heterocyclic rings or alkyl radicals” (Stiftung Deutsches Krebsforschungszentrum, priority 1978, dated 1983).
Structures can show the parent of a compound that is named as a salt. Where two headings read alike, the source gives them in different places.

Assays:
[1] = Mean animal weight / weight gain after tumor transplantation; type: in vivo, rat (Sprague-Dawley rats); conditions: CP 70 (exp. 1-3), BCNU 25, MeCCNU 45 (exp. 1), picolyl-3-CNU 25, its HCl 25 (exp. 2), morpholino-CNU 28, piperidino-CNU 15 (exp. 3), dimethylmorpholino-CNU 45 mg/kg (exp. 4); for Mean animal weight on day 50: day 50 after tumor transplantation; for Mean animal weight on day 100: day 100 after tumor transplantation
Method: (§1) Male Sprague-Dawley rats were used in the experiments. Yoshida sarcome in ascites form was maintained in the same strain of rats by serial intraperitoneal injection of 0,5 ml of ascites fluid.
(§2) 3×10^6 cells were injected into the colon wall in a manner known per se. The chemotherapeutic treatment was carried out on the eighth day after implantation of the tumor cells.
(§3) Water-insoluble compounds were dissolved in Cremophor EL/ethanol/physiological saline (20:20:60: vol.%). Water-soluble substances were dissolved in physiological saline. Cremophor EL is a surfactant on the basis of polyethoxylated castor oil. All test compounds were administered introperitoneally. The nitrosoureas were applied at approximately equitoxic doses corresponding to about 80% of the acute LD50 values observed in healthy rats of the same strain over a 28-day observation period.
In all treated animals and at all doses tested the mean weight gain was lower than in the controls. Table 3 gives the mean animal weights measured 50 and 100 days after tumor transplantation in experiments 1 to 5.

Yoshida sarcoma = type: in vivo, rat (male Sprague-Dawley rats); conditions: for M = median survival time: i.p. day 8
Method: The chemotherapeutic activity of nitrosoureas was compared in antitumor tests using Yoshida sarcoma ascited cells implanted into the wall of the descending colon in Sprague-Dawley rats.
as §1, §2, §3
Each experiment involved an untreated control group and a varying number of treated groups. Individual survival times were counted as days after tumor inoculation. At the time of death a record of whether an animal was tumor-free or not was made. All animals alive 120 days after tumor inoculation were killed. Animals that according to macroscopic examination had no tumor at the end of the experiment were considered as cured. Since in a number of control rats also no tumors occurred after 120 days the differences in cures between controls and treated animals rather than absolute numbers are reported. Differences in survival were evaluated statistically by individual comparisons between treated rats and controls using a nonparametric log-rank test (Kalbfleisch and Prentice, The statistical analysis of failure time data, Wiley, New York, 1979). Numerical evaluation was performed using a computerized system.

rat leukemia L 5222 = assay: Chemotherapeutic activity against rat Leukemia L5222; type: in vivo, rat (BD IX rats)
Method: Chemotherapeutic activity of methylformylamino-CNU against rat Leukemia L5222 (CNU=chloroethyl-nitroso-urea)
The compound to be tested was solved in Chremophor EL/ethanol/physiological saline and a single dose was administered intraperitoneally into tumor inoculated BD IX rats. The experiment involved an untreated control group and a number of treated groups. The doses used and the effects of the praeterminal treatment are summarized in the following Table from which the cures (animals free of tumor after 120 days) and the increase in life span (ILS, expressed as percentage of survival of the treated test group to the untreated control group) are evident.
Considering the fact that the true measure of the effectiveness of a drug against a neoplastic desease is the ability of the drug to kill the neoplastic cells at dosages that are not toxic to the host animal and that a quantitative evaluation of drug action is usually obtained by using the L1210 leucemia system in mice, it will be realized that in this test the tumor cells are injected into the peritoneal cavity of a mouse which thereafter is treated with the drug to be tested at a very early time after the inoculation of the tumor, i.e. at the first or second day after tumor inoculation. Thus such screening is done under very favourable test conditions for the drug. Contrary thereto the administration of the drug to be tested is performed relatively late in the case of the rat leucemia L5222, i.e. at the 8th day after tumor inoculation. It must, therefore, be taken that at that time tumor cells have colonized the cerebral region, i.e. the meninges, so that cures can only be obtained if the drug has an activity high enough to kill the leucemia cells in the cerebral region in a praeterminal state. Thus by far more severe test conditions are involved when treating rat leucemia L5222 or type Yoshida sarcoma which is a tumor model and which are hard to influence by known drugs.

[2] = Experiment 2, CP 70, picolyl-3-CNU 25, picolyl-3-CNU.HCl 25 mg/kg
[3] = Experiment 2, CP 70, picolyl-3-CNU 25, picolyl-3-CNU.HCl 25 mg/kg, 30 initial animals each
[4] = Experiment 5, CP 70, picolyl-3-CNU.HCl 25, morpholino-CNU 28, piperidino-CNU 15 mg/kg
[5] = Experiment 5, CP 70, picolyl-3-CNU.HCl 25, morpholino-CNU 28, piperidino-CNU 15 mg/kg, 15 initial animals (picolyl-3-CNU.HCl 14)
[6] = single i.p. dose printed 279 mg/kg

Structure (SMILES): O=NN(CCCl)C(=O)NCc1cccnc1 [Picolyl-3-CNU, 1-(2-chloroethyl)-1-nitroso-3-(methylene-3-pyridyl)-urea]
- Mean animal weight on day 50 [1]: 250 g
- Mean animal weight on day 100 [1]: 250 g
- % M (median survival time, untreated control = 100) (Yoshida sarcoma; [2]): 130%
- D1-120 = difference (%) between tf1-120 of treated and untreated animals (Yoshida sarcoma; [2]): 1%
- D120 = difference (%) between tf120 of treated and untreated animals (Yoshida sarcoma; [2]): -2%
- tf1-120 (%) (tf120 + animals dying of toxicity) (Yoshida sarcoma; [2]): 23%
- tf120 (%) (animals surviving day 120 without tumor) (Yoshida sarcoma; [2]): 20%
- tf1-120, No. (tf120 + animals dying of toxicity) (Yoshida sarcoma; [3]): 7
- tf120, No. (animals surviving day 120 without tumor) (Yoshida sarcoma; [3]): 6
- M = median survival time (Yoshida sarcoma; [2]): 28 days
- water solubility (in words) (Water solubility): water-insoluble

Structure (SMILES): O=NN(CCCl)C(=O)NCc1cccnc1 [Picolyl-3-CNU.HCl, [1-(2-chloroethyl)-1-nitroso-3-(methylene-3-pyridilium)-ureido]-chloride]
- Mean animal weight on day 50 [1]: 250 g
- Mean animal weight on day 100 [1]: 260 g
- increase in tumor-free animals (cures) above controls (Yoshida sarcoma; 120 days, CP (exp. 1-3), BCNU, MeCCNU 45, dimethylmorpholine-CNU 45, piperidino-CNU 15, picolyl-3-CNU.HCl 25 mg/kg): 15%
- % M (median survival time, untreated control = 100) (Yoshida sarcoma; [2]): 125%
- D1-120 = difference (%) between tf1-120 of treated and untreated animals (Yoshida sarcoma; [2]): 18%
- D120 = difference (%) between tf120 of treated and untreated animals (Yoshida sarcoma; [2]): 15%
- tf1-120 (%) (tf120 + animals dying of toxicity) (Yoshida sarcoma; [2]): 40%
- tf120 (%) (animals surviving day 120 without tumor) (Yoshida sarcoma; [2]): 37%
- tf1-120, No. (tf120 + animals dying of toxicity) (Yoshida sarcoma; [3]): 12
- tf120, No. (animals surviving day 120 without tumor) (Yoshida sarcoma; [3]): 11
- M = median survival time (Yoshida sarcoma; [2]): 27 days
- % M (median survival time, untreated control = 100) (Yoshida sarcoma; [4]): 150%
- D1-120 = difference (%) between tf1-120 of treated and untreated animals (Yoshida sarcoma; [4]): 0%
- D120 = difference (%) between tf120 of treated and untreated animals (Yoshida sarcoma; [4]): 0%
- tf1-120, No. (tf120 + animals dying of toxicity) (Yoshida sarcoma; [5]): 0
- tf120, No. (animals surviving day 120 without tumor) (Yoshida sarcoma; [5]): 0
- M = median survival time (Yoshida sarcoma; [4]): 15 days
- effect on survival time / life expectancy (in words) (Yoshida sarcoma; experiments 1-4, MeCCNU 45, morpholino-CNU 28 (exp. 3 and 5), dimethylmorpholine-CNU 45, piperidino-CNU 15, picolyl-3-CNU 25, picolyl-3-CNU.HCl 25 mg/kg): without resulting in a significant increase in survival

Structure (SMILES): CN(C=O)NC(=O)N(CCCl)N=O [methylformylamino-CNU, 1-(2-chloroethyl)-1-nitroso-3-(methyl-formyl-amino)urea]
- effectiveness in rat leukemia L 5222 (in words) (rat leukemia L 5222; rat, in vivo): active
- ILS (increase in life span) (rat leukemia L 5222; single i.p. dose 7 mg/kg): 70%
- cures (animals free of tumor after 120 days) (rat leukemia L 5222; single i.p. dose 7 mg/kg, 7 mg/kg): 3/8 and three cured animals out of eight
- ILS (increase in life span) (rat leukemia L 5222; single i.p. dose 70 mg/kg): 610%
- cures (animals free of tumor after 120 days) (rat leukemia L 5222; single i.p. dose 70 mg/kg): 3/9
- ILS (increase in life span) (rat leukemia L 5222; single i.p. dose 88 mg/kg): 230%
- cures (animals free of tumor after 120 days) (rat leukemia L 5222; single i.p. dose 88 mg/kg): 2/6
- ILS (increase in life span) (rat leukemia L 5222; single i.p. dose 111 mg/kg): 250%
- ILS (increase in life span) (rat leukemia L 5222; single i.p. dose 176 mg/kg): 40%
- ILS (increase in life span) (rat leukemia L 5222; single i.p. dose 11,1 mg/kg): 100%
- cures (animals free of tumor after 120 days) (rat leukemia L 5222; single i.p. dose 11,1 mg/kg): 2/8
- ILS (increase in life span) (rat leukemia L 5222; single i.p. dose 17,6 mg/kg): 150%
- cures (animals free of tumor after 120 days) (rat leukemia L 5222; single i.p. dose 17,6 mg/kg): 2/8
- ILS (increase in life span) (rat leukemia L 5222; single i.p. dose 44,2 mg/kg): 150%
- cures (animals free of tumor after 120 days) (rat leukemia L 5222; single i.p. dose 44,2 mg/kg): 2/8
- ILS (increase in life span) (rat leukemia L 5222; [6]): 175%
- cures (animals free of tumor after 120 days) (rat leukemia L 5222; [6]): 3/8
